In the assay the test system is P388 leukemia ip, CD2F1 mice, survival T/C. The experiment in a line: NCI In Vivo Anticancer Drug Screen. Data for tumor model P388 Leukemia (intraperitoneal) in CD2F1 (CDF1) mice. The settings on record: endpoint: median survival time, higher = longer survival. In a few lines: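 Mice carrying the transplanted tumor received test compound or vehicle. Survival was recorded in each group, and the value is the treated-group measurement divided by that of the vehicle-treated control group.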

Where [1] appears, read: dose: 60.0 mg/kg/injection, schedule: Q01DX005 (ip), vehicle: saline with Tween-80.
Setting [2] is: dose: 50.0 mg/kg/injection, schedule: Q01DX005 (ip), vehicle: saline with Tween-80.
Where [3] appears, read: dose: 100.0 mg/kg/injection, schedule: Q01DX005 (ip), vehicle: saline with Tween-80.
Where [4] appears, read: dose: 200.0 mg/kg/injection, schedule: Q01DX005 (ip), vehicle: saline with Tween-80.
[5] abbreviates: dose: 120.0 mg/kg/injection, schedule: Q01DX005 (ip), vehicle: saline with Tween-80.
Setting [6] is: dose: 240.0 mg/kg/injection, schedule: Q01DX005 (ip), vehicle: saline with Tween-80.

Where “and” joins values, the source holds several entries; their conditions need not be identical. Equal values may be shown once. Inconclusive results and toxic doses are left out.

Here are results for 17 compounds from PubChem BioAssay AID330 (DTP/NCI, 2004).

On to `N=C(N)c1ccc(N=Nc2ccc(O)c3c2ccc[n+]3[O-])cc1`, for which the T/C reads like this: (dose: 3.13 mg/kg/injection, schedule: Q01DX005 (ip), vehicle: Klucel (hydroxypropylcellulose) (HPC)) 106 % of control; (dose: 6.25 mg/kg/injection, schedule: Q01DX005 (ip), vehicle: Klucel (hydroxypropylcellulose) (HPC)) 97 % of control; (dose: 12.5 mg/kg/injection, schedule: Q01DX005 (ip), vehicle: Klucel (hydroxypropylcellulose) (HPC)) 106 % of control; (dose: 25.0 mg/kg/injection, schedule: Q01DX005 (ip), vehicle: Klucel (hydroxypropylcellulose) (HPC)) 109 % of control and 110 % of control and 117 % of control; (dose: 50.0 mg/kg/injection, schedule: Q01DX005 (ip), vehicle: Klucel (hydroxypropylcellulose) (HPC)) 117 % of control; (dose: 100.0 mg/kg/injection, schedule: Q01DX005 (ip), vehicle: Klucel (hydroxypropylcellulose) (HPC)) 103 % of control and 123 % of control. In addition, the T/C (dose: 200.0 mg/kg/injection, schedule: Q01DX005 (ip), vehicle: Klucel (hydroxypropylcellulose) (HPC)) is 110 % of control.
As to `COc1ccc(C(=O)Cc2nc3nnc(NC(=O)Nc4ccc(Cl)cc4)n3nc2CC(=O)c2ccc(OC)cc2)cc1`, the T/C (dose: 60.0 mg/kg/injection, schedule: Q01DX005 (ip), vehicle: saline) is 97 % of control; the T/C (dose: 120.0 mg/kg/injection, schedule: Q01DX005 (ip), vehicle: saline) is 94 % of control; the T/C (dose: 240.0 mg/kg/injection, schedule: Q01DX005 (ip), vehicle: saline) is 95 % of control.
For the compound `O=C(Cc1ccc(OCc2ccccc2)cc1)NCc1ccc2c(c1)OCO2`, the T/C runs as follows: (dose: 15.0 mg/kg/injection, schedule: Q01DX005 (ip), vehicle: saline with Tween-80) 96 % of control; (dose: 30.0 mg/kg/injection, schedule: Q01DX005 (ip), vehicle: saline with Tween-80) 91 % of control; under setting [1], 89 % of control.
Consider `CCCCCCCCCCCCCCC/C([O-])=N/[N+](C)(C)CC(C)O` (centres undefined), for which the T/C runs as follows: (dose: 50.0 mg/kg/injection, schedule: Q04DX003 (ip), vehicle: Klucel (hydroxypropylcellulose) (HPC)) 99 % of control; (dose: 100.0 mg/kg/injection, schedule: Q04DX003 (ip), vehicle: Klucel (hydroxypropylcellulose) (HPC)) 99 % of control; (dose: 200.0 mg/kg/injection, schedule: Q04DX003 (ip), vehicle: Klucel (hydroxypropylcellulose) (HPC)) 99 % of control.
With `O=S(=O)(O/C1=C/CCCCCC1)C(F)(F)F`, the T/C was 97 % of control (dose: 50.0 mg/kg/injection, schedule: Q01DX009 (ip), vehicle: olive oil, sesame oil, peanut oil); 113 % of control (dose: 100.0 mg/kg/injection, schedule: Q01DX009 (ip), vehicle: olive oil, sesame oil, peanut oil); 103 % of control (dose: 200.0 mg/kg/injection, schedule: Q01DX009 (ip), vehicle: olive oil, sesame oil, peanut oil).
Consider `Cc1nn(-c2ccc(Cl)cc2)c2nc(N)nc(N)c12`, for which the T/C by setting is: (dose: 6.25 mg/kg/injection, schedule: Q04DX002 (ip), vehicle: Klucel (hydroxypropylcellulose) (HPC)) 92 % of control; (dose: 12.5 mg/kg/injection, schedule: Q04DX002 (ip), vehicle: Klucel (hydroxypropylcellulose) (HPC)) 89 % of control and 93 % of control; (dose: 25.0 mg/kg/injection, schedule: Q04DX002 (ip), vehicle: Klucel (hydroxypropylcellulose) (HPC)) 92 % of control; (dose: 50.0 mg/kg/injection, schedule: Q04DX002 (ip), vehicle: Klucel (hydroxypropylcellulose) (HPC)) 89 % of control; (dose: 100.0 mg/kg/injection, schedule: Q04DX002 (ip), vehicle: Klucel (hydroxypropylcellulose) (HPC)) 105 % of control; (dose: 200.0 mg/kg/injection, schedule: Q04DX002 (ip), vehicle: Klucel (hydroxypropylcellulose) (HPC)) 115 % of control. Besides, the T/C (dose: 400.0 mg/kg/injection, schedule: Q04DX002 (ip), vehicle: Klucel (hydroxypropylcellulose) (HPC)) is 113 % of control.
With `CCCC(=O)NN=C(C)C`, the T/C is, setting by setting: (dose: 12.5 mg/kg/injection, schedule: Q01DX009 (ip), vehicle: saline) 104 % of control; (dose: 25.0 mg/kg/injection, schedule: Q01DX009 (ip), vehicle: saline) 109 % of control.
As to `NS(=O)(=O)c1ccc(NCc2cnc3ccccc3c2)cc1`, the T/C was 94 % of control (dose: 5.0 mg/kg/injection, schedule: Q01DX009 (ip), vehicle: saline); 88 % of control (dose: 10.0 mg/kg/injection, schedule: Q01DX009 (ip), vehicle: saline); 98 % of control (dose: 20.0 mg/kg/injection, schedule: Q01DX009 (ip), vehicle: saline).
For `CC(=O)SC1(C(C(N)=S)c2ccccc2)CCN(C)CC1` (centres undefined), the T/C by setting is: (dose: 50.0 mg/kg/injection, schedule: Q01DX005 (ip), vehicle: saline) 105 % of control; (dose: 100.0 mg/kg/injection, schedule: Q01DX005 (ip), vehicle: saline) 111 % of control; (dose: 200.0 mg/kg/injection, schedule: Q01DX005 (ip), vehicle: saline) 101 % of control.
As for `C[C@]12C=CC(=O)C(O)=C1CC[C@@H]1[C@@H]2CC[C@]2(C)OC(=O)CC[C@@H]12`, the T/C (dose: 5.5 mg/kg/injection, schedule: Q01DX005 (ip), vehicle: Klucel (hydroxypropylcellulose) (HPC)) was 106 % of control; the T/C (dose: 11.0 mg/kg/injection, schedule: Q01DX005 (ip), vehicle: Klucel (hydroxypropylcellulose) (HPC)) was 106 % of control; the T/C (dose: 22.0 mg/kg/injection, schedule: Q01DX005 (ip), vehicle: Klucel (hydroxypropylcellulose) (HPC)) was 101 % of control; the T/C (dose: 44.0 mg/kg/injection, schedule: Q01DX005 (ip), vehicle: Klucel (hydroxypropylcellulose) (HPC)) is 106 % of control; the T/C (dose: 88.0 mg/kg/injection, schedule: Q01DX005 (ip), vehicle: Klucel (hydroxypropylcellulose) (HPC)) was 106 % of control; the T/C (dose: 176.0 mg/kg/injection, schedule: Q01DX005 (ip), vehicle: Klucel (hydroxypropylcellulose) (HPC)) is 107 % of control.
As to `COc1ccc(C(Cc2cc(OC)c(OC)cc2Br)NC=O)cc1OC` (centres undefined), the T/C is 89 % of control under setting [2], 90 % of control under setting [3] and 91 % of control under setting [4].
With `CNC(=O)OCc1c(COC(=O)NC)c(-c2ccc(-c3ccccc3)cc2)n(C)c1C`, the T/C (dose: 2.5 mg/kg/injection, schedule: Q01DX009 (ip), vehicle: distilled water + Tween-80) is 154 % of control; the T/C (dose: 5.0 mg/kg/injection, schedule: Q01DX009 (ip), vehicle: distilled water + Tween-80) is 152 % of control; the T/C (dose: 10.0 mg/kg/injection, schedule: Q01DX009 (ip), vehicle: distilled water + Tween-80) is 151 % of control; the T/C (dose: 15.0 mg/kg/injection, schedule: Q01DX009 (ip), vehicle: distilled water + Tween-80) is 153 % of control; the T/C (dose: 20.0 mg/kg/injection, schedule: Q01DX009 (ip), vehicle: distilled water + Tween-80) was 94 % of control.
As to `O=C1CC2CCC1CC2c1cnc[nH]1` (centres undefined), the T/C is, setting by setting: (dose: 25.0 mg/kg/injection, schedule: Q04DX002 (ip), vehicle: saline with Tween-80) 93 % of control; (dose: 50.0 mg/kg/injection, schedule: Q04DX002 (ip), vehicle: saline with Tween-80) 100 % of control; (dose: 100.0 mg/kg/injection, schedule: Q04DX002 (ip), vehicle: saline with Tween-80) 102 % of control.
Consider `O=C1c2cccc3cccc(c23)C(=O)N1c1nccs1`, for which the T/C under setting [2] is 100 % of control, the T/C under setting [3] is 94 % of control and the T/C under setting [4] was 90 % of control.
As to `O=c1cccc(C2CC(CO)C3CCCCN3C2)[nH]1` (centres undefined), the T/C (dose: 1.1 mg/kg/injection, schedule: Q01DX009 (ip), vehicle: distilled water + Tween-80 + alcohol) was 86 % of control; the T/C (dose: 1.5 mg/kg/injection, schedule: Q01DX009 (ip), vehicle: acid diluted with CMC) was 96 % of control; the T/C (dose: 2.2 mg/kg/injection, schedule: Q01DX009 (ip), vehicle: acid diluted with CMC) was 99 % of control; the T/C (dose: 2.2 mg/kg/injection, schedule: Q01DX009 (ip), vehicle: distilled water + Tween-80 + alcohol) is 93 % of control; the T/C (dose: 4.5 mg/kg/injection, schedule: Q01DX009 (ip), vehicle: acid diluted with CMC) was 96 % of control; the T/C (dose: 4.5 mg/kg/injection, schedule: Q01DX009 (ip), vehicle: distilled water + Tween-80 + alcohol) was 93 % of control. Besides, the T/C runs as follows: (dose: 9.0 mg/kg/injection, schedule: Q01DX009 (ip), vehicle: acid diluted with CMC) 99 % of control and 93 % of control; (dose: 9.0 mg/kg/injection, schedule: Q01DX009 (ip), vehicle: distilled water + Tween-80 + alcohol) 103 % of control; (dose: 18.0 mg/kg/injection, schedule: Q01DX009 (ip), vehicle: acid diluted with CMC) 94 % of control.
Regarding `CN1C=C(C#N)CCC1Sc1ccc(Cl)cc1` (centres undefined), the T/C under setting [1] was 105 % of control, the T/C under setting [5] is 103 % of control and the T/C under setting [6] is 104 % of control.
For `CC(=O)c1cc(Cl)ccc1OCC(O)CNc1ccc(Cl)cc1C(=O)c1ccccc1` (centres undefined), in that order: 90 % of control, 92 % of control and 86 % of control.
